According to patent publication US8629149B2, “Oxopiperazine derivatives for the treatment of pain and epilepsy” (Zalicus Pharmaceuticals Ltd., priority 2009, dated 2014):

Columns and labels:
[1] = biological target: T1, human Nav1.5 channel (Homo sapiens, UniProt Q14524); test: Nav1.5 sodium channel screening assay (PatchXpress, cardiac action potential waveform); format: cell-based
T1 construct: expressed in transfected cells; host or cells: HEK cells
Experimental: Inhibition of the TTX-resistant Nav1.5 sodium channel, a key cardiac ion channel, can have profound effects on the duration and amplitude of the cardiac action potential and can result in arrhythmias and other heart malfunctions. To assess the potential cardiac liability of compounds at an early stage in the drug discovery process, a Nav1.5 sodium channel screening assay is performed on Molecular Device's PatchXpress™ automated electrophysiology platform. Under voltage-calmp conditions, Nav1.5 currents are recorded from HEK cells expressing the human Nav1.5 channel in the absence and presence of increasing concentrations of the test compound to obtain an IC50 value. The external recording solution contained (in mM): 90 TEACl, 50 NaCl, 1.8 CaCl, 1 MgCl2, 10 HEPES, 10 glucose, adjusted to pH 7.4 with TEA-OH and to 300 mOsm with sucrose (if necessary), while the internal patch pipette solution contained (in mM): 129 CsF, 2 MgCl2, 11 EGTA, 10 HEPES, 3 Na2ATP adjusted to pH 7.2 with CsOH and to 290 mOsm with sucrose (if necessary). Nav1.5 channel currents were evoked using a cardiac action potential waveform at 1 Hz, digitized at 31.25 kHz and low-pass filtered at 12 kHz.

[2] = system: SNL L5/L6 rats; test: L5/L6 spinal nerve ligation (SNL) Chung pain model, tactile allodynia (von Frey); format: in vivo, rat
Source text: The Spinal Nerve Ligation is an animal model representing peripheral nerve injury generating a neuropathic pain syndrome. In this model experimental animals develop the clinical symptoms of tactile allodynia and hyperalgesia. L5/L6 Spinal nerve ligation (SNL) injury was induced using the procedure of Kim and Chung (Kim et al., Pain 50:355-363 (1992)) in male Sprague-Dawley rats (Harlan; Indianapolis, Ind.) weighing 200 to 250 grams.
Anaesthesia was induced with 2% isofluorane in O2 at 2 L/min and maintained with 0.5% isofluorane in O2. Rats were then shaved and aseptically prepared for surgeries. A 2 cm paraspinal incision was made at the level of L4-S2. L4/L5 was exposed by removing the transverse process above the nerves with a small rongeur. The L5 spinal nerve is the larger of the two visible nerves below the transverse process and lies closest to the spine. The L6 spinal nerve is located beneath the corner of the slope bone. A home-made glass Chung rod was used to hook L5 or L6 and a pre-made slip knot of 4.0 silk suture was placed on the tip of the rod just above the nerve and pulled underneath to allow for the tight ligation. The L5 and L6 spinal nerves were tightly ligated distal to the dorsal root ganglion. The incision was closed, and the animals were allowed to recover for 5 days.
Sham control rats underwent the same operation and handling as the experimental animals, but without SNL.
Prior to initiating drug delivery, baseline behavioural testing data is obtained. At selected times after infusion of the Test or Control Article behavioural data can then be collected again.
The assessment of tactile allodynia consisted of measuring the withdrawal threshold of the paw ipsilateral to the site of nerve injury in response to probing with a series of calibrated von Frey filaments (innocuous stimuli). Animals were acclimated to the suspended wire-mesh cages for 30 min before testing. Each von Frey filament was applied perpendicularly to the plantar surface of the ligated paw of rats for 5 sec. A positive response was indicated by a sharp withdrawal of the paw. For rats, the first testing filament is 4.31. Measurements were taken before and after administration of test articles. […] The protocol was repeated until three changes in behaviour were determined (“up and down” method) (Chaplan et al., J. Neurosci. Methods 53:55-63 (1994)). The 50% paw withdrawal threshold was determined as (10^[Xf+kδ])/10,000, where Xf=the value of the last von Frey filament employed, k=Dixon value for the positive/negative pattern, and δ=the logarithmic difference between stimuli. The cut-off values for rats were no less than 0.2 g and no higher than 15 g (5.18 filament); for mice no less than 0.03 g and no higher than 2.34 g (4.56 filament). A significant drop of the paw withdrawal threshold compared to the pre-treatment baseline is considered tactile allodynia.
Rat SNL tactile allodynia were tested for Compounds 1-4 and 9-12 at 60 minutes compared to baseline and post-SNL. […] FIG. 1 is a plot of the antiallodynic effects of compound 4 (i.p.) tested in SNL L5/L6 rats using von Frey at three different doses, namely 3, 10 and 30 mpk, compared to vehicle alone. […] Rat SNL tactile allodynia were tested at 1, 2 and 4 hours after drug treatment (Table 6).

[3] = Mouse rotarod assay; format: in vivo; details: mouse, in vivo, mice
Experimental: To assess a compound's undesirable side effects (toxicity), animals were monitored for overt signs of impaired neurological or muscular function. In mice, the rotarod procedure (Dunham and Miya, J. Am. Pharmacol. Assoc. 46:208-209 (1957)) is used to disclose minimal muscular or neurological impairment (MMI). When a mouse is placed on a rod that rotates at a speed of 6 rpm, the animal can maintain its equilibrium for long periods of time. The animal is considered toxic if it falls off this rotating rod three times during a […].

[4] = Rat Early Pharmacokinetic (EPK) study; format: in vivo; details: 3 mg/kg PO, PG (propylene glycol)
Experimental: Male Sprague-Dawley rats were dosed via oral (PO) gavage in the detailed formulation. Blood samples were collected from the animals at 6 timepoints out to 4 hours post-dose. Pharmacokinetic analysis was performed on the LC-MS/MS measured concentrations for each timepoint of each compound.

T1 sequence (Q14524 whole entry): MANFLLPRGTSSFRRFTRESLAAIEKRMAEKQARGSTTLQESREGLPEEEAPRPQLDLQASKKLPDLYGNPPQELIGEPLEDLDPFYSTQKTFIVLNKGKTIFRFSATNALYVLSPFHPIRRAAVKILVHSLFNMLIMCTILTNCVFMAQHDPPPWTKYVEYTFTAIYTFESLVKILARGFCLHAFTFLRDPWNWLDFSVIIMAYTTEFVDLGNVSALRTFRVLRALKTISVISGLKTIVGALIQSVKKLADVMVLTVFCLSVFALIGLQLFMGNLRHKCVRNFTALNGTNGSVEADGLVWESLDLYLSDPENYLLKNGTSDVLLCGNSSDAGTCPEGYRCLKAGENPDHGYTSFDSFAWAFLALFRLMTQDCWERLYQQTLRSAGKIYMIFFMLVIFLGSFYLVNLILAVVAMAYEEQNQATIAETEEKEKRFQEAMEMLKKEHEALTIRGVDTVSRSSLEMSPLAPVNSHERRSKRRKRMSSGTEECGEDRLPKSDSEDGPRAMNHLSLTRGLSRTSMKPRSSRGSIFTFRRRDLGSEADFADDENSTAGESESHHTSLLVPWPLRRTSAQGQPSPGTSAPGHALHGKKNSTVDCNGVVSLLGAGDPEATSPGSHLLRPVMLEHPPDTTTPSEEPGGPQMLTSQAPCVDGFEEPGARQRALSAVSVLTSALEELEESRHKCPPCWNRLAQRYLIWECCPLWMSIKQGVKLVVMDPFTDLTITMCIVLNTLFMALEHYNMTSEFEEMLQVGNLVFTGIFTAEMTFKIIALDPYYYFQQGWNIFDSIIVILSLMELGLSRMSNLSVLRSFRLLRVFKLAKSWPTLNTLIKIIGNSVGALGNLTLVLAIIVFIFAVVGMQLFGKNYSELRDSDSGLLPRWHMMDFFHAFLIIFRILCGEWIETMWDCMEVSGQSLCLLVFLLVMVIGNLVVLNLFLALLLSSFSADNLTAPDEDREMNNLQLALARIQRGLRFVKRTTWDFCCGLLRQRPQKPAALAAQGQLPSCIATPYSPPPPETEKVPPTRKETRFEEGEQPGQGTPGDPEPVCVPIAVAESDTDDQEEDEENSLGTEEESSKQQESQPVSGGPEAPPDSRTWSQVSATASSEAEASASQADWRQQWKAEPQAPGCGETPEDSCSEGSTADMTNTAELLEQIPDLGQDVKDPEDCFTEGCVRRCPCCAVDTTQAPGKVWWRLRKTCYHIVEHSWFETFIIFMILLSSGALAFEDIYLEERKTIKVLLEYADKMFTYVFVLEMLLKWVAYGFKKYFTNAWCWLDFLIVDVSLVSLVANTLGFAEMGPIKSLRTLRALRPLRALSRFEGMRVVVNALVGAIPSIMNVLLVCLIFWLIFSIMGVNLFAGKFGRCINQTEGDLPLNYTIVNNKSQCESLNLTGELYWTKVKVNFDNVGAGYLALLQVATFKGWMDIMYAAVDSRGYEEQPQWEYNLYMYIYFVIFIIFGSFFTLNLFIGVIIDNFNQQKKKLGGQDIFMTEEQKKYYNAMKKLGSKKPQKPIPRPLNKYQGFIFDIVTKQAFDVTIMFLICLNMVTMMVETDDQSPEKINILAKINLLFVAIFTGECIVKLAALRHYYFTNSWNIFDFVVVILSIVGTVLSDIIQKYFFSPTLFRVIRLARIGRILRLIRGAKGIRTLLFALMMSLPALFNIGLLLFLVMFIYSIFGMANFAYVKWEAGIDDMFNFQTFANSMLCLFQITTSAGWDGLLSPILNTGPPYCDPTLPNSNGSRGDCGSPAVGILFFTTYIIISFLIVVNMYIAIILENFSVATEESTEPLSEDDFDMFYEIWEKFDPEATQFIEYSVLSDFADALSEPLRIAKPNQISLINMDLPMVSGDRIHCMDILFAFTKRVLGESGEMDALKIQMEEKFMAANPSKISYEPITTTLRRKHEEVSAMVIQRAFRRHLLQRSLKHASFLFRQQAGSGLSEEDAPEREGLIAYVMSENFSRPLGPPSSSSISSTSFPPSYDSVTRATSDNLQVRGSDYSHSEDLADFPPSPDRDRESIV

Row | Structure (SMILES) | Inhibition of the cardiac Nav 1.5 channel (statement) ([1]; HEK cells expressing human Nav1.5) | IC50 ([1]; cardiac action potential waveform at 1 Hz, read-out: HNAV 1.5 CARDIAC AP 1 Hz IC50) [µM] | Rat SNL Tactile Allodynia (% Antiallodynia) ([2]; 1 hour after drug treatment) [%] | Rat SNL tactile allodynia, anti-allodynia (statement) ([2]; compared to baseline and post-SNL) | Antiallodynic effects compared to vehicle (FIG. 1) ([2]; i.p., 3, 10 and 30 mpk, 60 minutes after drug administration, von Frey) | TD50 [3] [mg/kg] | Dose Normalized AUC [4] [nM·h] | Dose Normalized Cmax [4] [nM] | Tmax ([4]; male, Sprague-Dawley, blood) [min] | Rat SNL Tactile Allodynia (% Antiallodynia) ([2]; 2 hours after drug treatment) [%] | Rat SNL Tactile Allodynia (% Antiallodynia) ([2]; 4 hours after drug treatment) [%]
1 | O=C1CN(C(=O)CC(c2ccccc2)c2ccccc2)CCN1 [Compound 4, 4-(3,3-diphenylpropanoyl)piperazin-2-one] | did not act as inhibitors | ≥ 300 | 92 | significant antiallodynia | statistically significant antiallodynic effects | 370 | 522 | 832 | 15 |  | 
2 | O=C1CN(C(=O)CC(c2ccc(Cl)cc2)c2ccc(Cl)cc2)CCN1 [Compound 3, 4-(3,3-bis(4-chlorophenyl)propanoyl)piperazin-2-one] |  |  | 51 |  |  |  |  |  |  | 49 | 30
